The values below come from US20070275063A1, “SUSTAINED RELEASE PHARMACEUTICAL COMPOSITIONS AND METHODS OF TREATMENT USING THE SAME” (SmithKline Beecham Corporation, priority 1998, published 2007).

Data set [1] concerns fasting plasma glucose (FPG) concentrations in diabetic patients. Briefly: PK/PD model (modified indirect response model IV) of the effect of Compound (I) on fasting plasma glucose in Type 2 diabetes patients. The class given is in vivo, human. From the text:
The method by which the Threshold Plasma Concentration, such as the SC50 concentration, for a given compound can be determined is:
2) the model predicted concentrations for the compound are then fed back into the model and used to determine the change in fasting plasma glucose levels after various doses;
3) the relationship between predicted plasma concentrations of compound and fasting plasma glucose can suitably be determined using an indirect pharmacological response model (model IV), for example that described in (Dayneka N L, Garg V and Jusko W J, Comparison of Four Basic Models of Indirect Pharmacodynamic Responses. J of Pharmacokinetics and Biopharmaceutics. Vol 21, No 4. 1993). This model yields estimates of glucose input rate (Kin) and output rate (Kout), maximal stimulation of glucose output (Smax). Hill coefficient (gamma) and the Threshold Plasma Concentration, such as the SC50 concentration (i.e the concentration associated with a half maximal response) to be determined for that compound. This method forms a further part of the present invention.
For Compound (I), it was necessary to account for a time delay between the time of actual initiation of dosing (week 0) and the observed change in fasting plasma glucose. This delay factor was estimated through the modelling for each dose level. […] The delay factor was incorporated into the model for deriving fasting plasma glucose by assuming that the first dose of drug occurred only after the time dictated by the delay factor. It is considered that for this model a delay factor would be required for other thiazolidinedione insulin sensitisers and that this factor will be substantially similar to that found for Compound (I). Delay factors for other compounds may also be required to be determined using similar methodology to that disclosed herein.
A modified indirect response model IV (Dayneka et al. 1993) was developed utilizing the pharmacokinetics of Compound (I) as the driving force for the change in fasting plasma glucose after various doses of Compound (I). Modeling fittings were done using ADAPT II, Release 4 (D'Argenio and Schumitzky, 1979).
In the absence of Compound (I), plasma glucose levels are governed by formation (kin) and utilization (kout). The action of Compound (I) was described as stimulation (S(t)) of the utilization of plasma glucose (kout), described in text as FPG reduction (Eq. 1). Smax represents the maximal stimulation, SC50 is the Compound (I) concentration associated with half-maximal stimulation and γ represents a sigmoidicity parameter in the Hill type function (Eq. 2). [formula]
The mean fasting plasma glucose profiles from 6 weeks prior to dosing (time 0) through 26 weeks of treatment for the 5 treatment groups are shown in FIG. 2. The PK/PD model accommodates the full nature of the fasting plasma glucose response over the duration of the study period as evidenced by the close agreement between observed and predicted fasting plasma glucose concentrations (FIG. 2). […] The lag-time allows the model to describe the slow onset of action of Compound (I) observed over the first 4 weeks of dosing.

The conditions of data set [2]: human, in vivo. On the procedure:
Dose regimens evaluated were: 4 mg once daily and 2 mg twice daily, and 8 mg once daily and 4 mg twice daily.

Converted amounts (≈) assume the structure as drawn.

For the compound `CN(CCOc1ccc(CC2SC(=O)NC2=O)cc1)c1ccccn1` (stereo not shown) [Compound (I), 5-[4-[2-(N-methyl-N-(2-pyridyl)amino)ethoxy]benzyl]thiazolidine-2,4-dione], in data set [1] (Homo sapiens, iv, estimated pharmacodynamic parameter, not in table, read-out: SC50 (plasma concentration associated with half-maximal effect on fasting plasma glucose)), the EC50 was 0.0514 µg/mL (≈ 0.144 µM). Also, the “Smax (maximal stimulation of glucose utilization)” value in data set [1] (estimated pharmacodynamic parameter) is reported as 0.44. In addition, the “lag-time (delay) between first dose and onset of FPG response” value in data set [1] (mean across dose levels, estimated through the modelling) is 292 h. In data set [1] (model-derived), the “maximum FPG reduction suggested by Smax of the model” value is on record as 160 mg/dL. The reduction in glycaemia result in data set [1] (once daily dosing, study 024) is given as “clinically meaningful reductions in glycaemia are evident”. In addition, in data set [1] (study 024, same total daily dose), the “efficacy of twice daily versus once daily dosing” value is recorded as “twice daily dosing tended to be more efficacious than once daily”. Moreover, the “mean post hoc oral clearance” value in data set [2] was 2.68 L/h.
